Laboratory results from patent US7745152B2, “Method for determining genotoxicity” (priority 2004, dated 2010).
Where a name gives a salt, the structure may show the parent alone. Read-outs that look alike come from different tables or passages of the source.

Tests used:
[1] = tested on: C2C12 cells
[2] = tested on: DDA3; conditions: cited from earlier work
[3] = tested on: 4833427G06Rik mRNA; experiment: RT-PCR assay of 4833427G06Rik (Dog1) mRNA in C2C12 cells; assay type: cell-based, mouse; conditions: C2C12, 24 hour drug, 18 hour differentiation; relative to vehicle
[4] = tested on: Dda3 mRNA; experiment: RT-PCR assay of Dda3 mRNA in C2C12 cells; assay type: cell-based, mouse; conditions: C2C12, 24 hour drug, 18 hour differentiation; relative to vehicle
[5] = tested on: C2C12 cells; experiment: Genomic assay: gene expression analysis (Affymetrix Murine Genome MOE430) in C2C12 cells induced to differentiate
Procedure: Three independent replicates were generated for each drug and time point. Sample processing was carried out according to protocols described in the Affymetrix Expression Analysis Technical Manual. Briefly, total RNA was isolated from cells by the acid guanidinium thiocyanate-phenol-chloroform extraction method (Trizol®, Invitrogen, Carlsbad, Calif.). Twice purified poly(A+) RNA was isolated and reverse transcribed using a T7-promoter coupled oligo(dT) primer, followed by in vitro transcription. The labeled samples were applied to the Affymetrix Murine Genome MOE430 set and were hybridized overnight at 45° C./60 rpm, washed using a FS450 Fluidics station, and scanned on a GS3000 scanner. The resulting image files were analyzed using Affymetrix software (Microarray Analysis Suite version 5.0).
To measure the effect of drug treatment on cellular gene expression, replicate data obtained from each drug and time point were compared with replicates for vehicle-matched controls using the Student t-test. The gene expression levels were Log transformed before applying the Student t-test. The fold change of the average expression level between the control and drug-treated cells was also calculated. […] A gene was considered expressed if the Affymetrix software determined that the gene was “present” in two out of the three replicates. This ensured that true expression changes were identified, and could be distinguished from background variability. Second, the calculated expression change for each of five tested drugs was at least 2 fold, and the calculated p-value for the expression change using the Student t-test was less than 0.01.

[6] = C2C12, 24 h drug (μg/ml: BLEO 0.5, CIS 0.6, ETOP 0.5, MMS 0.008, MNNG 4, VINC 0.6), then 6, 18 or 24 h differentiation, vs DMSO

With CCOS(C)(=O)=O [Methanesulfonate ethyl ester (EMS), Methanesulfonate ethyl ester] the Lowest effective dose ([1]; mouse, 24 h) was 100 µg/mL.
For CO[C@@]12[C@H](COC(N)=O)C3=C(C(=O)C(C)=C(N)C3=O)N1C[C@@H]1N[C@@H]12 [Mitomycin C], the “DDA3 expression in NIH3T3 cells exposed to DNA damaging agents” value [2] is listed as “upregulated”.
CC(=O)O[C@H]1C(=O)[C@@]2(C)[C@H]([C@H](OC(=O)c3ccccc3)[C@]3(O)C[C@H](OC(=O)[C@H](O)[C@@H](NC(=O)c4ccccc4)c4ccccc4)C(C)=C1C3(C)C)[C@]1(OC(C)=O)CO[C@@H]1C[C@@H]2O [Paclitaxel] showed a Lowest effective dose ([1]; mouse, 24 h) of 0.002 µg/mL.
In the case of CC[C@]1(O)C[C@@H]2CN(CCc3c([nH]c4ccccc34)[C@@](C(=O)OC)(c3cc4c(cc3OC)N(C)[C@H]3[C@@](O)(C(=O)OC)[C@H](OC(C)=O)[C@]5(CC)C=CCN6CC[C@]43[C@@H]65)C2)C1 [Vinblastine sulfate], the “relative expression of 4833427G06Rik mRNA” value [3] is reported as “much larger increase in expression of these indicator genes than did vincristine”, the “relative expression of Dda3 mRNA” value [4] is reported as “much larger increase in expression of these indicator genes than did vincristine” and the Lowest effective dose ([1]; mouse, 24 h) is reported as 0.0006 µg/mL.
In the case of CC[C@]1(O)C[C@H]2CN(CCc3c([nH]c4ccccc34)[C@@](C(=O)OC)(c3cc4c(cc3OC)N(C=O)[C@H]3[C@@](O)(C(=O)OC)[C@H](OC(C)=O)[C@]5(CC)C=CCN6CC[C@]43[C@@H]65)C2)C1 [Vincristine sulfate], the Lowest effective dose ([1]; mouse, 24 h) is reported as 0.002 µg/mL, the “Fold change in expression: 0610013D04 Rik, RIKEN cDNA” value [5, 6] is reported as 2.00 fold and the “Fold change in expression: 1600013K19 Rik, RIKEN cDNA” value [5, 6] is reported as 0.98 fold. For the same compound, the “Fold change in expression: 2610005B21 Rik, RIKEN cDNA” value [5, 6] was 0.81 fold, the “Fold change in expression: 2610019I03 RIK, RIKEN cDNA” value [5, 6] was 0.76 fold and the “Fold change in expression: 2610509G12 Rik, RIKEN cDNA” value [5, 6] was 0.55 fold. For the same compound, the “Fold change in expression: 2810417H13 Rik, RIKEN cDNA” value [5, 6] was 0.96 fold, the “Fold change in expression: 4833427G06 Rik, RIKEN cDNA” value [5, 6] was 0.98 fold and the “Fold change in expression: 6530401L14 Rik, RIKEN cDNA” value [5, 6] was 0.53 fold. For the same compound, the “Fold change in expression: 9030617O03 Rik, RIKEN cDNA” value [5, 6] was 1.20 fold, the “Fold change in expression: Anxa8, Annexin A8” value [5, 6] was 1.80 fold and the “Fold change in expression: Asflb, ASF1 anti-silencing function 1 homolog B (Saccharomyces)” value [5, 6] was 0.71 fold. For the same compound, the “Fold change in expression: Birc5, Baculoviral IAP repeat-containing 5” value [5, 6] was 0.87 fold, the “Fold change in expression: Brca1, Breast cancer 1” value [5, 6] was 0.51 fold and the “Fold change in expression: Calmbp1, Calmodulin binding protein 1” value [5, 6] was 0.40 fold. The “Fold change in expression: Capn6, Calpain 6” value [5, 6] was 0.83 fold, the “Fold change in expression: Ccna2, Cyclin A2” value [5, 6] was 0.82 fold and the “Fold change in expression: Ccng1, Cyclin G1” value [5, 6] was 1.80 fold. The “Fold change in expression: Cilp, Cartilage intermediate layer pro” value [5, 6] was 0.77 fold, the “Fold change in expression: Cks2, CDC28 protein kinase regulatory subunit 2” value [5, 6] was 0.78 fold and the “Fold change in expression: D4Ertd421e, DNA segment, Chr 4, ERATO Doi 421, expressed” value [5, 6] was 0.64 fold. For the same compound, the “Fold change in expression: Dda3-pending, Differential display and activated by p53” value [5, 6] was 2.00 fold, the “Fold change in expression: E2f7, E2F transcription factor 7” value [5, 6] was 0.63 fold and the “Fold change in expression: E030024M05 Rik, RIKEN cDNA” value [5, 6] was 1.20 fold. For the same compound, the “Fold change in expression: E130315B21 Rik, RIKEN cDNA” value [5, 6] was 0.70 fold, the “Fold change in expression: Ephx1, Epoxide hydrolase 1 (microsomal xenobiotic hydrolase)” value [5, 6] was 1.10 fold and the “Fold change in expression: Fbxo5, f-box only protein 31” value [5, 6] was 0.54 fold. For the same compound, the “Fold change in expression: Foxm1, Forkhead box M1” value [5, 6] was 0.68 fold, the “Fold change in expression: Gmnn, Geminin” value [5, 6] was 0.65 fold and the “Fold change in expression: Gnpi, Glucosamine-6-phosphate deaminase” value [5, 6] was 1.60 fold. The “Fold change in expression: Hgf, Hepatocyte growth factor (scatter factor)” value [5, 6] was 2.00 fold, the “Fold change in expression: Hmgb2, High mobility group box 2” value [5, 6] was 0.57 fold and the “Fold change in expression: Hmgb3, High mobility group box 3” value [5, 6] was 0.67 fold. The “Fold change in expression: Hmmr, Hyaluronan mediated motility receptor (RHAMM)” value [5, 6] was 0.52 fold, the “Fold change in expression: Kifl1, Kinesin 11” value [5, 6] was 0.46 fold and the “Fold change in expression: Lek1, Leucine, glutamic acid, lysine family 1 protein” value [5, 6] was 0.45 fold. The “Fold change in expression: Ly6e, Lymphocyte antigen 6 complex, locus E” value [5, 6] was 1.30 fold, the “Fold change in expression: M-phosph1, M-phase phosphoprotein” value [5, 6] was 0.37 fold and the “Fold change in expression: MGC:32192, Mus musculus cDNA clone MGC: 32192 IMAGE: 5006129” value [5, 6] was 0.71 fold. The “Fold change in expression: Mad2l1, MAD2 (mitotic arrest deficient, homolog)-like 1 (yeast)” value [5, 6] was 0.64 fold, the “Fold change in expression: Mad3, Max dimerization protein 3” value [5, 6] was 0.89 fold and the “Fold change in expression: Mcm3, Minichromosome maintenance deficient 3 (Saccharomyces)” value [5, 6] was 0.69 fold. For the same compound, the “Fold change in expression: Mcmd4, Minichromosome maintenance deficient 4 homolog” value [5, 6] was 0.64 fold, the “Fold change in expression: Mki67, Antigen identified by MAb Ki67” value [5, 6] was 0.43 fold and the “Fold change in expression: Mmhead, Mus musculus 15 day embryo head cDNA clone” value [5, 6] was 0.95 fold. For the same compound, the “Fold change in expression: Nos3, Nitric oxide synthase 3, endothelial cell” value [5, 6] was 1.30 fold, the “Fold change in expression: Np95, Nuclear protein 95” value [5, 6] was 0.71 fold and the “Fold change in expression: Nusap1, Nucleolar and spindle associated protein 1” value [5, 6] was 0.56 fold. The “Fold change in expression: Osbp16, Oxysterol binding protein-like 6” value [5, 6] was 1.10 fold, the “Fold change in expression: Pbk, PDZ binding kinase” value [5, 6] was 0.62 fold and the “Fold change in expression: Pcna, Proliferating cell nuclear antigen” value [5, 6] was 0.70 fold. The “Fold change in expression: Phex, Phosphate regulating neutral endopeptidase (X chromosome)” value [5, 6] was 0.67 fold, the “Fold change in expression: Plf, Proliferin” value [5, 6] was 1.10 fold and the “Fold change in expression: Pola1, DNA polymerase alpha 1, 180 kDa” value [5, 6] was 0.51 fold. The “Fold change in expression: Prc1, Protein regulator of cytokinesis 1” value [5, 6] was 0.63 fold, the “Fold change in expression: Prelp, Proline arginine-rich end leucine-rich repeat” value [5, 6] was 0.58 fold and the “Fold change in expression: Prim1, DNA primase, p49 subunit” value [5, 6] was 0.54 fold. The “Fold change in expression: Rad51ap1, RAD51-associated protein 1” value [5, 6] was 0.59 fold, the “Fold change in expression: Rbl1, Retinoblastoma-like 1 (p107)” value [5, 6] was 0.67 fold and the “Fold change in expression: Serpine1, Ser (or Cys) proteinase inhibitor, clade E, member 1” value [5, 6] was 1.00 fold. The “Fold change in expression: Sesn2, Sestrin 2” value [5, 6] was 2.38 fold, the “Fold change in expression: Shcbp1, Shc SH2-domain binding protein 1” value [5, 6] was 0.52 fold and the “Fold change in expression: Slc35a5, Solute carrier family 35, member A5” value [5, 6] was 1.30 fold. For the same compound, the “Fold change in expression: Smc2l1, SMC2 structural maintenance of chromosomes 2-like 1” value [5, 6] was 0.75 fold, the “Fold change in expression: Stk18, Serine/threonine kinase 18” value [5, 6] was 0.63 fold and the “Fold change in expression: Tacc3, Transforming, acidic coiled-coil containing protein 3” value [5, 6] was 0.73 fold. For the same compound, the “Fold change in expression: Tagln, Transgelin (smooth muscle 22 protein)” value [5, 6] was 0.84 fold, the “Fold change in expression: Tk1, Thymidine kinase 1” value [5, 6] was 0.62 fold and the “Fold change in expression: Top2a, Topoisomerase (DNA) II alpha” value [5, 6] was 0.52 fold. For the same compound, the “Fold change in expression: Trp53inp1, Transformation related protein, 53 inducible nuclear protein 1” value [5, 6] was 1.60 fold, the “Fold change in expression: Usp30, Ubiquitin specific protease 30” value [5, 6] was 2.00 fold and the “Fold change in expression: Wig1, Wild-type p53-induced gene 1” value [5, 6] was 1.20 fold. For the same compound, the “pattern of gene expression changes” value ([5]; C2C12, vincristine sulfate 0.6 μg/ml 24 h, relative to the five other drugs tested) was “induced a distinct pattern of gene expression changes relative to the five other drugs tested”, the “Fold change in expression: Slc19a2, Solute carrier family 19 (thiamine transporter), member 2” value ([5]; first Slc19a2 entry (r16), C2C12, 24 h drug (μg/ml: BLEO 0.5, CIS 0.6, ETOP 0.5, MMS 0.008, MNNG 4, VINC 0.6), then 6, 18 or 24 h differentiation, vs DMSO) was 1.40 fold and the “Fold change in expression: Slc19a2, Solute carrier family 19 (thiamine transporter), member 2” value ([5]; second Slc19a2 entry (r72), C2C12, 24 h drug (μg/ml: BLEO 0.5, CIS 0.6, ETOP 0.5, MMS 0.008, MNNG 4, VINC 0.6), then 6, 18 or 24 h differentiation, vs DMSO) was 1.10 fold.
For COc1cccc2c1C(=O)c1c(O)c3c(c(O)c1C2=O)C[C@@](O)(C(=O)CO)C[C@@H]3O[C@H]1C[C@H](N)[C@H](O)[C@H](C)O1 [adriamycin], the “DDA3 expression in NIH3T3 cells exposed to DNA damaging agents” value [2] is listed as “upregulated”.
Work on Bleomycin sulfate yielded a Lowest effective dose [1] of 1 µg/mL.
